Patent US20210048439A1, “CAGED AMINO ACIDS FOR CONTROLLED METABOLIC INCORPORATION AND METHODS OF USE” (University of Washington, priority 2018, published 2021)

Legend:
HeLa cells [1] = assay: Metabolic labeling of Met-depleted HeLa cells; Aha incorporation quantified by protein fluorescence (FAM-BCN, SDS-PAGE); assay type: cell-based
Procedure: Subsequent irradiation with UV light (λ=365 nm, 10 mW cm^−2, 5 min) yielded photoliberated Aha for metabolic incorporation. Two hours after light exposure, cells were lysed and their proteins were treated with a bicyclononyne-modified fluorescein (FAM-BCN, 100 nM, FIG. 2E) to introduce a fluorescent label by SPAAC. Protein fluorescence was then used to quantify the extent of Aha incorporation following protein separation by sodium dodecyl sulfate polyacrylamide gel electrophoresis (SDS-PAGE).
To control the extent of ncAA incorporation into newly synthesized proteins, NPPOC-Aha concentration was varied (0-250 μM) and the intensity of light irradiation (0-10 mW cm^−2) employed during photo-uncaging. […] To determine the potential effects of UV irradiation on metabolic incorporation, labeled protein fluorescence was compared for samples treated with Aha (50 μM)+/−light (10 mW cm^−2, 5 min) (FIG. 3D).
For in vitro work, borosilicate well plates (Mattek, P35G-1.5-14-C) were pretreated with high glucose Dulbecco's Modified Eagle Media (DMEM) supplemented with fetal bovine serum (FBS, 10%) and penicillin-streptomycin (PS, 1%). Plates were incubated at 37° C. for 10 minutes. HeLa cells were cultured on tissue culture polystyrene before seeding on borosilicate glass. After cells reached the desired confluency (50-60% for imaging; 80-90% for lysate analysis), cells were subjected to the following experiments.
Cells were rinsed with warm 1× Dulbecco's phosphate buffered saline (DPBS) and starved of methionine (Met) by the addition of Met-depleted media (1 h, 37° C.). Met-depleted media was prepared by adding L-cystine-2HCl (0.2 mM), L-glutamine (4 mM), and sodium pyruvate (1 mM) to depleted media (Fisher, 21013024). Media was removed and cells were treated with media containing NPPOC-Aha at the desired concentration (0-250 μM). Control media consisted of Aha or Met in the place of NPPOC-Aha. Cells were then irradiated with light (365 nm, 1-10 mW/cm2, 5 min). The cultures were then incubated (2 h, 37° C.) to promote Aha incorporation. The cells were then washed with 1×DPBS (37° C.).
Samples were prepared for sodium dodecyl sulfate polyacrylamide gel electrophoresis (SDS-PAGE) by lysing cells in lysis buffer (10 mM PO4, pH 7.0, 0.5% sodium dodecyl sulfate). Proteins were collected and immediately placed on ice. Free thiols were capped by the addition of iodoacetamide (10 mM, 30 min, room temperature). Azide-containing proteins were labeled by treatment with FAM-BCN (10 μM, 5 hours, room temperature). Excess FAM-BCN was removed by precipitating proteins with 4× sample volume of cold acetone (−20° C.). Lysates were incubated in acetone (1 h, −20° C.) and then subjected to centrifugation (14,000×g, 10 min). Proteins were redissolved in lysis buffer with gentle heating (40° C., 10 min), precipitated once more, and washed with 4× sample volume acetone before drying (20 min). Proteins were then dissolved in SDS-PAGE sample buffer (50 mM Tris-HC, 2% SDS, 10% glycerol, 12.5% β-mercaptoethanol, 0.025% bromophenol blue). Proteins were electrophoretically separated by a 12% polyacrylamide gel by applying a potential of 105 V. After electrophoresis, gels were scanned on a Typhoon FLA9000 fluorescent gel scanner before being stained with coomassie dye.

HeLa cells [2] = assay: Spatial labeling of phototagged cells in 3D tissue culture (PEG hydrogel, slitted photomask); assay type: cell-based; settings: cells in oxime-based PEG hydrogels (7 wt %), irradiated through slitted photomask
Description: Cells were encapsulated in oxime-based poly(ethylene glycol) hydrogels (7 wt %), treated with NPPOC-Aha and selectively irradiated through a slitted photomask. Cells were fixed and fluorescently labeled with FAM-BCN, phalloidin, and Hoechst. […] FAM fluorescence decreased exponentially away from exposed regions in a diffusion-predicted manner. Actin and DNA staining lack substantial patterning (FIG. 4).
HeLa cells were liberated from the tissue culture plate with trypsin, resuspended in FBS-supplemented DMEM, and pelleted by centrifugation. The cells were then gently resuspended in depleted media containing the photocaged Aha. Hydrogel precursors (10 k PEG functionalized with alkoxyamines or benzaldehyde) were combined (1:1 benzaldehyde:alkoxyamine stoichiometry) with cells prior to deposition on a glass-bottomed well plate (7 wt %, 10 mM aniline, 5 million cells/mL). After the gel had formed (30 min), it was inundated with depleted media containing […] (100 μM 30 min). Excess media was removed by aspiration and a subsection of the gel was irradiated with light (365 nm, 10 mW/cm2, 5 min) through a slitted photomask. Gels were washed with warm 1×DPBS (37° C., 15 min) before fixing with formaldehyde (4%, 1 hr, room temperature). Fixed cells were rinsed with 1×DPBS, and permeabilized with Triton™ X-100 (Sigma, 0.5%, 1 hr, room temperature). Cells were then washed (3×, 1 hr each) with 1×DPBS. […]

HeLa cells [3] = assay: Fluorescent labeling of phototagged fixed cells (confocal imaging); assay type: cell-based; settings: NPPOC-Aha 100 μM in the absence of light
Procedure: Building on the capability to fluorescently tag cellular lysates as well as isolate species of interest via laBONCAT, the technique's unique ability to label newly synthesized proteins in vitro with spatial control was investigated; this method could be applied to the isolation of proteins […] at user-specified times and locations from heterogeneous features in tissue culture, especially tissue slices. HeLa cells were treated with NPPOC-Aha (100 μM) and exposed to light (λ=365 nm, 10 mW cm^−2, 5 min). Two hours after exposure, cells were fixed, permeabilized, and treated with FAM-BCN (100 nM) to introduce a fluorescent label via SPAAC.
To fluorescently label Aha-tagged proteins for visualization, cells were rinsed with warm 1×DPBS (37° C.) before fixing with formaldehyde (4%, 10 min, room temperature). Fixed cells were rinsed with 1×DPBS, and permeabilized with Triton™ X-100 (Sigma, 0.5%, 2 min, room temperature). Cells were then washed (3×, 5 min each) with 1×DPBS. Azides were labeled by strain-promoted azide-alkyne cycloaddition (SPAAC) with FAM-BCN (100 nM, 30 min, room temperature) in the dark. Next, labeled cells were washed (3×, 5 min each) with 1×DPBS prior to imaging on a Leica SP8X laser scanning confocal microscope.

HeLa cells [4] = assay: NPPOC-Aha in vitro stability in media with HeLa cells; assay type: in vitro ADME
Procedure: To assess its in vitro stability, NPPOC-Aha (100 μM) was incubated in media with HeLa cells for 0-4 hr prior to light exposure (10 mW cm^−2, 5 min) and subsequent metabolic labeling (2 hr). […] Such stability is useful in sampling biological systems, as it decouples media swaps from proteome labeling, allowing researchers to standardize their experimental conditions.
The stability of NPPOC-Aha was conducted using the above protocols for cell culture and SDS-PAGE with minor modifications. Instead of irradiating samples immediately following addition of NPPOC-Aha media, NPPOC-Aha was incubated in the presence of cells for the desired time (0-4 hours) prior to light exposure. Met (3.33 μM) was added to all media, yielding a 30:1 ratio of NPPOC-Aha:Met5.

[5] = NPPOC-Aha photo-uncaging (photolysis) kinetics by HPLC; assay type: physicochemical
Description: For this system to be effective, the kinetics of NPPOC uncaging should be rapid, such that the liberation of free Aha is not rate limiting compared with the biological processes under study. To determine its photolysis kinetics, NPPOC-Aha (dissolved in H2O:CH3CN, 50:50) was irradiated with collimated UV light (λ=365 nm, 10 mW cm^−2, 0-600 s exposure). Degradation products were quantitatively analyzed by HPLC, with elution fractions compositionally identified by mass spectrometry.
To determine the kinetics of NPPOC-Aha uncaging upon UV light exposure, NPPOC-Aha (3.4 mM dissolved in 50:50 dH2O:CH3CN) was placed in quartz NMR tubes and irradiated with collimated UV light (365 nm, 10 mW/cm^2) emanating from an OmniCure (series 1500; light intensity measured with Cole-Palmer series 9811 radiometer). Time points were collected every 120 s for a total of 600 s. The resulting degradation products were separated by reverse-phase HPLC, eluting with a CH3CN/dH2O gradient ramping from 5% to 100% CH3CN over 55 minutes. Remaining NPPOC-Aha was identified by HRMS (ESI+). Calculated for C14H18N5O6 [M+1H]+, 352.1257; observed 352.1259 (Δ=0.5 ppm). The HPLC peak corresponding to starting material was integrated and monitored over time.

[6] = control media with Aha or Met in place of NPPOC-Aha

[N-]=[N+]=NCC[C@H](N)C(=O)O [Aha, L-Azidohomoalanine, reference compound]
effect of UV irradiation on protein labeling (HeLa cells [1]; Aha 50 μM +/− light (10 mW cm^−2, 5 min)): no statistical difference | protein fluorescence (extent of Aha incorporation) (HeLa cells [1]; [6]): significant fluorescent enhancement | free Aha concentration above which normalized incorporation plateaus (HeLa cells [1]; incorporation normalized for expected liberated Aha predicted by the photokinetics): about 50 μM

CSCC[C@H](N)C(=O)O [Met, L-methionine, reference compound]
protein fluorescence (extent of Aha incorporation) (HeLa cells [1]; [6]): lack of fluorescence

CC(COC(=O)N[C@@H](CCN=[N+]=[N-])C(=O)O)c1ccccc1[N+](=O)[O-] (stereo partly drawn) [NPPOC-Aha, (2S)-4-azido-2-({[2-(2-nitrophenyl)propoxy]carbonyl}amino)butanoic Acid]
cellular FAM signal pattern (patterned Aha incorporation) (HeLa cells [2]): localized near exposed regions | extent of fluorescent labeling of fixed cells (HeLa cells [3]): low-level labeling similar to Met | Aha incorporation as function of NPPOC-Aha concentration (HeLa cells [1]; NPPOC-Aha 0-250 μM, given exposure condition): increased with NPPOC-Aha concentration | protein fluorescence (extent of Aha incorporation) (HeLa cells [1]; NPPOC-Aha 250 μM, UV-treated (365 nm, 10 mW cm^−2, 5 min), lysis 2 h after exposure): significant fluorescent enhancement | protein fluorescence (extent of Aha incorporation) (HeLa cells [1]; NPPOC-Aha 250 μM, non-irradiated): lack of fluorescence | dependence of protein labeling on mode of irradiation (HeLa cells [1]; NPPOC-Aha irradiated separately or during incubation with cells): does not depend on whether NPPOC-Aha is irradiated separately or during incubation with cells | incorporation of irradiated NPPOC-Aha compared with Aha (HeLa cells [1]; each at 100 μM, NPPOC-Aha + light): slightly less incorporation than Aha alone | metabolic labeling as function of light intensity (HeLa cells [1]; low NPPOC-Aha concentrations, 0-10 mW cm^−2): increased with light intensity | Aha incorporation after pre-incubation, non-irradiated samples (HeLa cells [4]; 100 μM, 0-4 hr in media with HeLa cells, no light): did not show increased incorporation over time | Aha incorporation after pre-incubation, irradiated samples (HeLa cells [4]; 100 μM, 0-4 hr in media with HeLa cells, then light): extent decreased over time | working time (stability in media with cells) (HeLa cells [4]; NPPOC-Aha 100 μM incubated with HeLa cells 0-4 hr before light (10 mW cm^−2, 5 min), labeling 2 hr): > 4 h | first-order decay constant for NPPOC photolysis ([5]; H2O:CH3CN 50:50, collimated UV λ=365 nm, 10 mW cm^−2, 0-600 s): 0.0075 ± 0.0002 s⁻¹ | NPPOC cleaved ([5]; after 5 minutes of irradiation, 365 nm, 10 mW cm-2): 90%
